Legend:
[1] = target: TfR (Homo sapiens, UniProt P02786); experiment: Sandwich ELISA, binding of fluorescent PLGA-GA/PLGA NS to TfR; conditions: 200 ng of TfR
Procedure: GA has been previously shown to have affinity for TfR, independent of transferrin binding. To evaluate the translation of the avidity of GA for TfR in PLGA-GA NS, a sandwich ELISA method was employed. The initial study involved the determination of the effect of surface GA density of NS in their binding affinity to TfR. […] The total […] of the NS suspension available in the wells without TfR was also measured in order to ensure that the variation in the FI with TfR was caused by the binding of the NS to the receptor.

[2] = test system: Caco-2 cells; experiment: Concentration dependent toxicity in Caco-2 cells; format: cell-based; conditions: human
Procedure: Cell death observed in the latter case could be attributed to the cumulative effect of high concentration of polymer and available GA. However, a moderate treatment of 250 μg NS appears to be safe for the cells. The amount of GA present in all the NS in […] was much lower than the established safe dose of 60 mg/kg described in literature.

[3] = described in literature; cited from earlier work

Chain of TfR (P02786 whole entry, species assumed): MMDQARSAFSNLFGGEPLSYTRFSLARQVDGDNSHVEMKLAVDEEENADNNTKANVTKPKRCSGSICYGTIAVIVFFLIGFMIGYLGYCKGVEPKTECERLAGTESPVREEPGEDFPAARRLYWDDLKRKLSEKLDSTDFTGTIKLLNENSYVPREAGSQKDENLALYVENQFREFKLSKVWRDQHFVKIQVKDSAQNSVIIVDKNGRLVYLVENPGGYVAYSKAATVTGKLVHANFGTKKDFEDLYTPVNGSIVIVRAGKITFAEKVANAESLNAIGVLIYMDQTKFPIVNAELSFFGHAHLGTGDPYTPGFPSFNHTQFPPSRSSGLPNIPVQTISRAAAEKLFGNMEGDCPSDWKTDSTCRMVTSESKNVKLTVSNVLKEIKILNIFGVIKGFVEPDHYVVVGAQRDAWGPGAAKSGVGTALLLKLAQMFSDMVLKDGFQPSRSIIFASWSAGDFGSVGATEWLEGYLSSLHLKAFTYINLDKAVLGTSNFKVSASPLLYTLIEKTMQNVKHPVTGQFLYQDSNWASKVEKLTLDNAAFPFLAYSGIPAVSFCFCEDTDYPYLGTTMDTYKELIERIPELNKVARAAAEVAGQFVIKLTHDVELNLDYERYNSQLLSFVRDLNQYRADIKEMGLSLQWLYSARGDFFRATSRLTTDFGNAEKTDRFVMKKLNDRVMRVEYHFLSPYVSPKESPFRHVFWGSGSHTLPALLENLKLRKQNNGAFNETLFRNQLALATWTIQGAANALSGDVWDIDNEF

CC(C)=CCC[C@]1(C)C=Cc2c(O)c3c(c(CC=C(C)C)c2O1)O[C@]12C(=C[C@@H]4C[C@H]1C(C)(C)O[C@@]2(C/C=C(/C)C(=O)O)C4=O)C3=O [GA, gambogic acid]
competition with 2° antibody for TfR (colorimetric TfR levels) [1]: does not compete with 2° antibody for TfR
cell death ([2]; 20 μM): 25%
cell death ([2]; 30 μM): 46%
established safe dose [3]: 60 mg/kg

Reference: patent publication US10786465B2, “Polymer/copolymer nanoparticles conjugated to gambogic acid” (The Texas A&M University System, priority 2015, dated 2020)
